# In patent publication US8394969B2, “Cyclic benzimidazole derivatives useful as anti-diabetic agents” (Merck Sharp & Dohme Corp., priority 2008, dated 2013):
# Structures can show the parent of a compound that is named as a salt.
# Biological target: recombinant human AMPK complex 1 (containing α1β1γ1) (Homo sapiens, UniProt Q13131+Q9Y478)
# Assay: […] (in vitro AMPK activation assay)
# Format: biochemical
# Settings: read-out: % Maximum AMP Activation of human AMPK Complex 1, recombinant human AMPK complex 1 (α1β1γ1); basal activity subtracted
# Description: Recombinant viruses were generated by cotransfection of AMPK/pBacPak9 clones with Baculogold baculovirus DNA (Pharmingen) in spodoptera frugiperda 21 cells according to the manufacturer's instructions. Each round of virus amplification was performed for 5 days in Grace's medium containing 10% serum. Virus that had been subjected to three rounds of amplification was used for all protein production procedures. To express the AMPK complex, sf21 cells were adapted to serum free medium (SF900 II, Invitrogen) by sequential dilution from serum containing stocks into SF900 II medium and maintained in shaker flasks at 90 rpm at 27° C. The recombinant AMPK enzyme complex was produced by triple infection, one recombinant virus for each of the subunits, in sf21 cells under serum free conditions. […] Cells were harvested by centrifugation at 10,000×g for 15 minutes after 72 hours of infection with viruses. The insect cell pellet from 2 liters of culture was resuspended in 50 ml lysis buffer (20 mM Tris-HCl, 50 mM NaCl, 50 mM NaF, 30 mM Na PPi, 0.25 M sucrose, 10 mM ZnCl2, 2 mM DTT, 0.4 mg/ml digitonin) and subjected to two cycles of freeze-thaw lysis in a dry-ice ethanol bath. Insoluble material was removed by centrifugation at 10,000×g and the supernatant was fractionated with use of polyethylene glycol (PEG).
# The total in vitro AMPK activation assay volume is 50 μl in a 96-well plate. […] The reaction was initiated with addition of the enzyme. After 30-minute incubation at 30° C., the reaction was stopped by addition of 80 μl 1% H3PO4. Aliquots (100 μl) were transferred to 96-well MultiScreen plates (MAPHNOB50; Millipore Corp., Bedford, Mass., USA). The plate was washed three times with 1% H3PO4 followed by detection in a Top-count. The counts per minute from the basal activity (the reaction without activator) was subtracted from each well and the data were expressed as % maximum AMP activation followed by EC50 calculation.
# Chain of recombinant human AMPK complex 1 (containing α1β1γ1) (Q13131 whole entry): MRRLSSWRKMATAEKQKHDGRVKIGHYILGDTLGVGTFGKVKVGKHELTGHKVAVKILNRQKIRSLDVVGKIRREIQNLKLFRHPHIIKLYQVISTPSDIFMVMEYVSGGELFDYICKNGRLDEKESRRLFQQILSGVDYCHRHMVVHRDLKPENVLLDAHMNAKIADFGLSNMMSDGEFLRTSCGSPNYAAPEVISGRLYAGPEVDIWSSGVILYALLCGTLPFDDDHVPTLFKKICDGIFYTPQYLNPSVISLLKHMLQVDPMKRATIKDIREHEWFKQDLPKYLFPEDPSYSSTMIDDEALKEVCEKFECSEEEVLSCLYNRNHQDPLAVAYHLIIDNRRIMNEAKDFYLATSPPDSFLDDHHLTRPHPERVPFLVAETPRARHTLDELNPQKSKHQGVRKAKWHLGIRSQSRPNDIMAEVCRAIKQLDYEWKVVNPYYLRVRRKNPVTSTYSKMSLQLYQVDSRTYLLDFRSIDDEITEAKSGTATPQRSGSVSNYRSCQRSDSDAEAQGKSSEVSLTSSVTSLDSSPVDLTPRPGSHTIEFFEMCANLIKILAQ
# Chain of recombinant human AMPK complex 1 (containing α1β1γ1) (Q9Y478 whole entry): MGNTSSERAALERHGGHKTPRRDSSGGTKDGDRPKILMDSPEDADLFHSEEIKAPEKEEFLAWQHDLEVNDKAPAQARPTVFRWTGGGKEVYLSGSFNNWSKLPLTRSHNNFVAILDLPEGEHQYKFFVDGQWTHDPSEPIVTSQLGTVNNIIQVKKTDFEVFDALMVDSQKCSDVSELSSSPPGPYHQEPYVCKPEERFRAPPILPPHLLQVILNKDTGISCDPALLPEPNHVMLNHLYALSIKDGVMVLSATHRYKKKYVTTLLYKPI
# Chain of recombinant human AMPK complex 1 (containing α1β1γ1) (P54619 whole entry partner): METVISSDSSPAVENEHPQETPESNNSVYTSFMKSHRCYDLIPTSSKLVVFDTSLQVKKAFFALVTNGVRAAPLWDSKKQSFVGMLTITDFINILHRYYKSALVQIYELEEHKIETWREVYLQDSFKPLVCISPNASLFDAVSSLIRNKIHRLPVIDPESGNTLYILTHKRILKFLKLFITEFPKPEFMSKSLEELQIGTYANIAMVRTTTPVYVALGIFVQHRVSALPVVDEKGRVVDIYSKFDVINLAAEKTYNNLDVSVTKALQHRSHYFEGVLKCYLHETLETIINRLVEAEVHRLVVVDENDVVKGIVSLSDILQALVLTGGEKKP
row,Compound,Emax
1,"COc1ccc(-c2cc3nc(Oc4ccc(C)c(C(=O)O)c4)[nH]c3cc2Cl)cc1 [Example 345, Ammonium 5-{[6-chloro-5-(4-methoxyphenyl)-1H-benzimidazol-2-yl]oxy}-2-methylbenzoate]",> 80%

# Same assay, conditions: recombinant human AMPK complex 1 (α1β1γ1); basal activity subtracted; read-out: % Maximum AMP Activation of human AMPK Complex 1
row,Compound,Emax
1,"Cc1cccc(C#Cc2cc3nc(Oc4ccc(C)c(C(=O)O)c4)[nH]c3cc2Cl)c1 [Example 97, 5-(6-Chloro-5-m-tolylethynyl-1H-benzoimidazol-2-yloxy)-2-methyl-benzoic acid]",> 80%
2,"COc1ncccc1-c1ccc(-c2cc3nc(Oc4ccc(C)c(C(=O)O)c4)[nH]c3cc2Cl)cc1 [Example 199, 5-({6-chloro-5-[4-(2-methoxypyridin-3-yl)phenyl]-1-benzimidazol-2-yl}oxy)-2-methylbenzoic acid]",> 80%
3,"Cc1ccc(Oc2nc3cc(C#Cc4ccc(-c5cscn5)cc4)c(Cl)cc3[nH]2)cc1C(=O)O [Example 83, 5-[6-Chloro-5-(4-thiazol-4-yl-phenylethynyl)-1H-benzoimidazol-2-yloxy]-2-methyl-benzoic acid]",> 80%
4,"COc1cccc(-c2ccc(-c3cc4nc(Oc5ccc(C)c(C(=O)O)c5)[nH]c4cc3Cl)cc2)c1 [Example 187, 5-{[6-chloro-5-(3′-methoxybiphenyl-4-yl)-1H-benzimidazol-2-yl]oxy}-2-methylbenzoic acid]",> 80%
5,"COC(=O)c1cc(Oc2nc3cc(-c4ccc(-c5ccccn5)cc4)c(Cl)cc3[nH]2)ccc1C [Example 165, 5-[6-Chloro-5-(4-pyridin-2-yl-phenyl)-1H-benzoimidazol-2-yloxy]-2-methyl-benzoic acid methyl ester]",> 80%
6,"O=C(NS(=O)(=O)c1ccccc1)c1cccc(Oc2nc3cc(-c4ccc(-c5ccccc5)cc4)c(Cl)cc3[nH]2)c1 [Example 222, N-[3-(5-Biphenyl-4-yl-6-chloro-1H-benzoimidazol-2-yloxy)-benzoyl]-benzenesulfonamide]",> 80%
7,"N#Cc1cccc(Oc2nc3cc(-c4ccc(-c5ccccc5)cc4)c(Cl)cc3[nH]2)c1 [Example 42, 3-(5-Biphenyl-4-yl-6-chloro-1H-benzoimidazol-2-yloxy)-benzonitrile]",> 80%
8,"Cc1ccc(Oc2nc3cc(-c4ccc(C5CCCC5)cc4)c(Cl)cc3[nH]2)cc1C(=O)O [Example 258, 2-(3-carboxy-4-methylphenoxy)-6-chloro-5-(4-cyclopentylphenyl)-1H-3,1-benzimidazol-3-ium trifluoroacetate]",> 80%
9,"Cc1ccc(Oc2nc3cc(-c4ccc5c(c4)CN(C)C5)c(Cl)cc3[nH]2)cc1C(=O)O [Example 300, 5-[2-(3-carboxy-4-methylphenoxy)-6-chloro-1H-benzimidazol-5-yl]-2-methyl-2,3-dihydro-1H-isoindolium trifluoroacetate]",> 80%
10,"CCOC(=O)Cc1ccc(Oc2nc3cc(-c4ccc(-c5ccccc5)cc4)c(Cl)cc3[nH]2)cc1C(=O)OCC [Example 9, 5-(5-Biphenyl-4-yl-6-chloro-1H-benzoimidazol-2-yloxy)-2-ethoxycarbonylmethyl-benzoic acid ethyl ester]",> 80%
11,"Cc1ccc(Oc2nc3cc(-c4ccc5c(C)n[nH]c5c4)c(Cl)cc3[nH]2)cc1C(=O)O [Example 240, 5-[6-Chloro-5-(3-methyl-1H-indazol-6-yl)-1H-benzoimidazol-2-yloxy]-2-methyl-benzoic acid]",> 80%
12,"O=C(O)Cc1ccc(Oc2nc3cc(-c4ccc(-c5ccccc5)cc4)c(Cl)cc3[nH]2)cc1C(=O)O [Example 8, 5-(5-Biphenyl-4-yl-6-chloro-1H-benzoimidazol-2-yloxy)-2-carboxymethyl-benzoic acid]",> 80%
13,"Cc1c(Oc2nc3cc(-c4ccc5c(ccn5C)c4)c(Cl)cc3[nH]2)cccc1C(=O)O [Example 218, 3-[6-Chloro-5-(1-methyl-1H-indol-5-yl)-1H-benzoimidazol-2-yloxy]-2-methyl-benzoic acid]",> 80%
14,"Cc1ccc(Oc2nc3cc(-c4ccc(-c5ccc[n+]([O-])c5)cc4)c(Cl)cc3[nH]2)cc1C(=O)O [Example 161, 5-{6-Chloro-5-[4-(1-oxy-pyridin-3-yl)-phenyl]-1H-benzoimidazol-2-yloxy}-2-methyl-benzoic acid]",> 80%
15,"O=c1[nH]nc(-c2cccc(Oc3nc4cc(-c5ccc(-c6ccccc6)cc5)c(Cl)cc4[nH]3)c2)o1 [Example 47, 5-[3-(5-Biphenyl-4-yl-6-chloro-1H-benzoimidazol-2-yloxy)-phenyl]-3H-[1,3,4]oxadiazol-2-one]",> 80%
16,"Cc1ccc(Oc2nc3cc(C#Cc4ccc(F)cc4)c(Cl)cc3[nH]2)cc1C(=O)O [Example 113, 5-[6-Chloro-5-(4-fluoro-phenylethynyl)-1H-benzoimidazol-2-yloxy]-2-methyl-benzoic acid]",> 80%

row,Compound,Emax
1,"Cc1ccc(Oc2nc3cc(-c4ccc(-c5ccccc5)c(C)c4)c(Cl)cc3[nH]2)cc1C(=O)O [Example 303, 5-[6-Chloro-5-(2-methyl-biphenyl-4-yl)-1H-benzoimidazol-2-yloxy]-2-methyl-benzoic acid]",> 80%
2,"COc1ccc2cc(-c3cc4nc(Oc5ccc(C)c(C(=O)O)c5)[nH]c4cc3Cl)ccc2n1 [Example 146, 5-[6-Chloro-5-(2-methoxy-quinolin-6-yl)-1H-benzoimidazol-2-yloxy]-2-methyl-benzoic acid]",> 80%
3,"Cc1ccccc1C#Cc1cc2nc(Oc3ccc(C)c(C(=O)O)c3)[nH]c2cc1Cl [Example 96, 5-(6-Chloro-5-o-tolylethynyl-1H-benzoimidazol-2-yloxy)-2-methyl-benzoic acid]",> 80%
4,"COC(=O)c1cc(Oc2nc3cc(C#Cc4ccc(OC(F)(F)F)cc4)c(Cl)cc3[nH]2)ccc1C [Example 98, 5-[6-Chloro-5-(4-trifluoromethoxy-phenylethynyl)-1H-benzoimidazol-2-yloxy]-2-methyl-benzoic acid methyl ester]",> 80%
5,"O=C(O)c1cc(Oc2nc3cc(-c4ccccc4)c(Cl)cc3[nH]2)ccc1Cl [Example 61, 2-Chloro-5-(6-chloro-5-phenyl-1H-benzoimidazol-2-yloxy)-benzoic acid]",> 80%
6,"Cc1ccc(Oc2nc3cc(C#Cc4ccc(-c5nccs5)cc4)c(Cl)cc3[nH]2)cc1C(=O)O [Example 84, 5-[6-Chloro-5-(4-thiazol-2-yl-phenylethynyl)-1H-benzoimidazol-2-yloxy]-2-methyl-benzoic acid]",> 80%
7,"Cc1ccc(Oc2nc3cc(-c4ccc5nnn(C)c5c4)c(Cl)cc3[nH]2)cc1C(=O)O [Example 149, 5-[6-Chloro-5-(3-methyl-3H-benzotriazol-5-yl)-1H-benzoimidazol-2-yloxy]-2-methyl-benzoic acid]",> 80%
8,"Cc1ccc(Oc2nc3cc(-c4cnc(N5CCCC5)nc4)c(Cl)cc3[nH]2)cc1C(=O)O [Example 257, 2-(3-carboxy-4-methylphenoxy)-6-chloro-5-(2-pyrrolidin-1-yl-pyrimidin-5-yl)-1H-3,1-benzimidazol-3-ium trifluoroacetate]",> 80%
9,"Cc1ccc(Oc2nc3cc(-c4ccc5c(ccn5CCO)c4)c(Cl)cc3[nH]2)cc1C(=O)O [Example 263, 5-({6-chloro-5-[1-(2-hydroxyethyl)-1H-indol-5-yl]-1H-benzimidazol-2-yl}oxy)-2-methylbenzoic acid]",> 80%
10,"Cc1ccc(Oc2nc3cc(-c4ccc5onc(C)c5c4)c(Cl)cc3[nH]2)cc1C(=O)O [Example 141, 5-[6-Chloro-5-(3-methyl-benzo[d]isoxazol-5-yl)-1H-benzoimidazol-2-yloxy]-2-methyl-benzoic acid]",> 80%
11,"Cc1ccc(Oc2nc3cc(C#CC4CCCC4O)c(Cl)cc3[nH]2)cc1C(=O)O (centres unmarked) [Example 130, 5-[6-Chloro-5-(2-hydroxy-cyclopentylethynyl)-1H-benzoimidazol-2-yloxy]-2-methyl-benzoic acid]",> 80%
12,"COC(=O)c1cc(Oc2nc3cc(-c4ccc(-c5ccncc5)cc4)c(Cl)cc3[nH]2)ccc1C [Example 167, 5-[6-Chloro-5-(4-pyridin-4-yl-phenyl)-1H-benzoimidazol-2-yloxy]-2-methyl-benzoic acid methyl ester]",> 80%
13,"Cc1ccc(Oc2nc3cc(-c4cnn(C)c4)c(Cl)cc3[nH]2)cc1C(=O)O [Example 57, 5-[6-Chloro-5-(1-methyl-1H-pyrazol-4-yl)-1H-benzoimidazol-2-yloxy]-2-methyl-benzoic acid]",> 80%
14,"COc1ccccc1C#Cc1cc2nc(Oc3ccc(C)c(C(=O)O)c3)[nH]c2cc1Cl [Example 106, 5-[6-Chloro-5-(2-methoxy-phenylethynyl)-1H-benzoimidazol-2-yloxy]-2-methyl-benzoic acid]",> 80%
15,"Cc1ccc(Oc2nc3cc(-c4ccc(-c5ccccn5)cc4)c(Cl)cc3[nH]2)cc1C(=O)O [Example 166, 5-[6-Chloro-5-(4-pyridin-2-yl-phenyl)-1H-benzoimidazol-2-yloxy]-2-methyl-benzoic acid]",> 80%
